Measured values taken from patent US20210205323A1, “MAINTENANCE THERAPY OF A PARP INHIBITOR IN TREATING GASTRIC CANCER” (BEIGENE, LTD., priority 2018, published 2021).

Columns and labels:
[1] = system: gastric cancer; conditions: olaparib added to second-line chemotherapy with paclitaxel; phase III; cited from earlier work
[2] = system: BBGA087 patient derived gastric cancer xenograft; test: Efficacy of pamiparib and oxaliplatin + 5-FU on tumor growth in a patient derived gastric cancer xenograft; assay type: in vivo, female nod-scid mice; conditions: BBGA087 model, pamiparib 6 mg/kg p.o. BID
Procedure: (§1) Female nod-scid mice were subcutaneously implanted with BBGA087 patient derived gastric tumor tissue fragments (3×3×3 mm3) in the right flank. After inoculation, tumor volume and body weight were measured twice weekly and calculated using the formula: V=0.5×(a×b2) where a and b were the long and short diameters of the tumor, respectively. When the average tumor size reached 200 mm3, animals were randomly assigned into 3 groups. Animals were treated with vehicle (0.5% methylcellulose, 0.5% MC), pamiparib, oxaliplatin plus 5-Fluorouracil (5-FU), respectively. BGB290 was administered at 6 mg/kg by oral gavage (p.o.) twice daily (BID), oxaliplatin was administered by intraperitoneal (i.p.) injection once per week (QW) for three weeks, and 5-FU was administered by intraperitoneal (i.p.) injection once daily with 5 days per week.
(§2) Data is presented as mean tumor volume+standard error of the mean (SEM). Tumor growth inhibition (TGI) is calculated using the following formula: […]

[3] = system: BBGA087 patient derived gastric cancer xenograft; test: Pamiparib as maintenance therapy after oxaliplatin + 5-FU treatment in the xenograft model; assay type: in vivo, female nod-scid mice
Procedure: as §1
After 28 days, mice treated with oxaliplatin and 5-FU were reallocated into 2 groups according to the tumor volume, and were treated with either placebo (0.5% MC) or pamiparib as maintenance therapy.
as §2

[4] = system: PBMCs; test: Clinical pharmacodynamic target modulation in PBMCs; assay type: in vivo; conditions: in the clinic; recommended Phase 2 dose 60 mg BID

Row | Structure (SMILES) | overall survival (OS) compared with paclitaxel and placebo [1] | Mean Tumor Volume on Day 28 ([2]; oxaliplatin 5 mg/kg + 5-FU 15 mg/kg i.p.) | TGI (%) on Day 28 ([2]; oxaliplatin 5 mg/kg i.p. QW*3 plus 5-FU 15 mg/kg i.p. QD*5/week*3) | Mean Tumor Volume on Day 32 ([3]; maintenance therapy 6 mg/kg BID after 28 days of oxaliplatin + 5-FU, Day 32) | TGI (%) on Day 32 ([3]; maintenance therapy 6 mg/kg BID after 28 days of oxaliplatin + 5-FU, versus placebo (0.5% MC), Day 32) | tumor relapse on maintenance therapy ([3]; pamiparib 6 mg/kg BID as maintenance versus placebo (0.5% MC) after oxaliplatin + 5-FU) | dose level achieving maximum pharmacodynamic target modulation in PBMCs [4]
1 | O=C(c1cc(Cc2n[nH]c(=O)c3ccccc23)ccc1F)N1CCN(C(=O)C2CC2)CC1 [olaparib] | failed to improve overall survival |  |  |  |  |  | 
2 | C[C@]12CCCN1CC1=NNC(=O)c3cc(F)cc4[nH]c2c1c34 [pamiparib] |  | 921 mm3 | 42% | 222 mm3 | 96% | tumor relapse was delayed | 10 mg BID
